Read-outs that look alike come from different tables or passages of the source.
Legend:
[1] = Plasma free fraction (fu) and unbound Cmax (Cmax,u); assay type: in vitro ADME, human; settings: unbound plasma Cmax
Experimental: The prediction of DILI severity was evaluated further using the 3D combined HCI assays using plasma-free fraction. The majority of fu values were obtained from literature, when unavailable in-house prediction was utilised. Unbound plasma Cmax concentrations (Cmax,u) were derived by multiplying total plasma Cmax with the corresponding free fraction (fu) for each compound.

[2] = cited from earlier work
[3] = tested on: primary human hepatocytes, NIH3T3 fibroblasts, BSEP, CYP3A4; settings: cited from earlier work
HepG2 cells = settings: cited from earlier work
human hepatocytes = settings: cited from earlier work
[4] = tested on: THLE or HepG2 cells, isolated mitochondria, BSEP; settings: cited from earlier work
PHH = settings: cited from earlier work
hLiMTs [5] = settings: cited from earlier work
PHH spheroids = settings: cited from earlier work
[6] = tested on: HepG2 C3A spheroid, BSEP, Glu/Gal in HepG2 cells, bioactivation; settings: cited from earlier work
[7] = read-out: Human plasma Cmax; total plasma Cmax.tot, median of 9 literature references; cited from earlier work
[8] = plasma free fraction; cited from earlier work
[9] = cited from earlier work; remark: listed apart in the source
[10] = tested on: THLE-Null and THLE-3A4 cells; settings: In vitro Assay; ref Gustafsson 2014; cited from earlier work
[11] = tested on: HepG2 cells, primary human hepatocytes; settings: In vitro Assay; ref Garside 2014; cited from earlier work
[12] = ref Chen 2011; cited from earlier work
rBsep = settings: In vitro Assay; ref Dawson 2012; cited from earlier work
hLiMTs [13] = experiment: Combined HCI (HCS) and cellular ATP 3D assay in hLiMTs; settings: for AC50 / minimal effective concentration: Homo sapiens
HepaRG spheroids = experiment: Combined HCI (HCS) and cellular ATP 3D assay in HepaRG spheroids; settings: for AC50 / minimal effective concentration: Homo sapiens
[14] = In vitro Assay, ref Schadt 2015
[15] = In vitro Assay, ref Persson 2013
[16] = Modeled in vitro assays (cytotoxicity, mitochondrial dysfunction, BSEP), ref Aleo et al. 2019
[17] = In vitro Assay, ref Proctor 2017
[18] = Microtissue model structural based (HCI), combined HCS and ATP, MEC < 25 × Cmax.tot cut-off

CCc1nn(CCCN2CCN(c3cccc(Cl)c3)CC2)c(=O)n1CCOc1ccccc1 [nefazodone, reference compound]
Human plasma Cmax,u [1]: 0.043 µM | DILI severity category (Chen et al. [2016]) ([2]; LTKB DILIrank category, ref Chen et al. 2016): Most | DILI severity category (Chen 2016) ([2]; human DILI classification, LTKB DILIrank, ref Chen et al. 2016): Most | DILI severity category ([2]; human DILI severity, ref Chen et al.): Most | DILI +VE (5-8), DILI -VE (-4) ([2]; ref Chen 2016): +VE | DILI severity category ([2]; ref Chen 2016): vMost-DILI-Concern | DILI in vitro assay prediction, Schadt (2015) ([3]; BSEP & Metabolism based, ref Schadt et al. 2015): +VE | Cellular toxicity (3T3 cells) [3, 14]: -VE | Combined Assay [3, 14]: +VE | GSH adduct HML [3, 14]: +VE | Hepatocyte cellular toxicity [3, 14]: +VE | MitoTox 3T3 [3, 14]: +VE | TDI CYP3A4 [3, 14]: +VE | hBSEP inhibition [3, 14]: +VE | Cluser analysis (HepG2 cells; [15]): +VE | Structural based (HCI) (HepG2 cells; [15]): +VE | DILI in vitro assay prediction, Persson (2013) (HepG2 cells; Structural based (HCI), HepG2, ref Persson et al. 2013): +VE | Structural based (HCI) (human hepatocytes; In vitro Assay, ref Xu 2008): +VE | DILI in vitro assay prediction, Xu (2008) (human hepatocytes; Structural based (HCI), human hepatocytes, ref Xu et al. 2008): +VE | Partition Hybrid HRM Score ([4]; In vitro Assay, ref Aleo 2019): +VE | Ro2 Hybrid HRM Score ([4]; In vitro Assay, ref Aleo 2019): +VE | Partition Hybrid HRM Score ≥4, Aleo (2019) [4, 16]: +VE (Partition Hybrid HRM Score ≥4) | Partition Hybrid HRM Score ≥8, Aleo (2019) [4, 16]: +VE (Partition Hybrid HRM Score ≥8) | Rule of Two hybrid HRM Score ≥3, Aleo (2019) [4, 16]: +VE (Rule of Two hybrid HRM Score ≥3) | Rule of Two hybrid HRM Score ≥8, Aleo (2019) [4, 16]: +VE (Rule of Two hybrid HRM Score ≥8) | PHH/100xCmax, Proctor (2017) (PHH; 2D PHH, ATP, IC50 < 100 × Cmax.tot, ref Proctor et al. 2017): +VE (IC50 < 100 × Cmax.tot) | PHH/100uM, Proctor (2017) (PHH; 2D PHH, ATP, IC50 threshold 100 µM, ref Proctor et al. 2017): +VE (IC50 threshold of 100 µM) | PHH ATP <100uM (PHH; [17]): +VE (IC50 threshold of 100 µM) | hLiMTs ATP <100uM (hLiMTs [5]; [17]): +VE (IC50 threshold of 100 µM) | hLiMTs/100xCmax, Proctor (2017) (hLiMTs [5]; hLiMTs, ATP, IC50 < 100 × Cmax.tot, ref Proctor et al. 2017): +VE (IC50 < 100 × Cmax.tot) | hLiMTs/100uM, Proctor (2017) (hLiMTs [5]; hLiMTs, ATP, IC50 threshold 100 µM, ref Proctor et al. 2017): +VE (IC50 threshold of 100 µM) | hLiMTs ATP <20 x Cmax (PHH spheroids; In vitro Assay, ref Vorrink 2018): +VE (IC20 < 20 × Cmax.tot cut-off) | DILI in vitro assay prediction, Vorrink (2018) (PHH spheroids; PHH spheroids, ATP, 14 days, IC20 < 20 × Cmax.tot, ref Vorrink et al. 2018): +VE (IC20 < 20 × Cmax.tot cut-off) | Bayesian Machine Learning DILI prediction, Williams (2019) ([6]; Bayesian modeling, ref Williams et al. 2019): +VE | Bayesian Machine Learning ([6]; In vitro Assay, ref Williams 2019): +VE | Cmax [7]: 4.25 µM | fu [8]: 0.010 | Assigned DILI category ([9]; Chen et al. 2016 or literature alignment, ref Chen et al. 2016): 3 | In vivo DILI ([9]; […]): +VE | In vivo DILI ([9]; ref Aleo 2019): +VE | In vivo DILI ([9]; ref Dawson 2012): +VE | In vivo DILI ([9]; ref Garside 2014): +VE | In vivo DILI ([9]; ref Gustafsson 2014): +VE | In vivo DILI ([9]; ref Persson 2013): +VE | In vivo DILI ([9]; ref Proctor 2017): +VE | In vivo DILI ([9]; ref Schadt 2015): +VE | In vivo DILI ([9]; ref Vorrink 2018): +VE | In vivo DILI ([9]; ref Williams 2019): +VE | In vivo DILI ([9]; ref Xu 2008): +VE | THLE-Null [10]: +VE | THLE-Null/3A4 [10]: +VE | Cluster 1-6 +VE Assay [11]: +VE | DILI Score (FDA) (1-8) [12]: 8 | Inhibition of rBsep cutoff<1& cmax u>.2 (rBsep): +VE | Inhibition of rBsep cutoff<3 (rBsep): +VE | AC50 (hLiMTs [13]; read-out: ATP endpoint AC50): 12.1 µM | minimal effective concentration (hLiMTs [13]; read-out: ATP endpoint MEC): 8.98 µM | AC50 (hLiMTs [13]; read-out: HCS endpoint AC50): 23.4 µM | minimal effective concentration (hLiMTs [13]; read-out: HCS endpoint MEC): 13.8 µM | DILI prediction hLiMTs (HCS-MEC) (hLiMTs [13]; [18]): +VE (MEC < 25 × Cmax.tot cut-off) | hLiMTs <25x Avg Cmax ATP (hLiMTs [13]; hLiMTs, ATP endpoint, cut-off <25x Avg Cmax): +ve | hLiMTs <100x Avg Cmaxu ATP (hLiMTs [13]; hLiMTs, ATP endpoint, cut-off <100x Avg Cmaxu): -ve | hLiMTs <25x Avg Cmax HCS (hLiMTs [13]; hLiMTs, HCS endpoints, cut-off <25x Avg Cmax): +ve | hLiMTs <100x Avg Cmaxu HCS (hLiMTs [13]; hLiMTs, HCS endpoints, cut-off <100x Avg Cmaxu): -ve | hLiMTs <25x Avg Cmax All (hLiMTs [13]; hLiMTs, all endpoints (ATP and HCS), cut-off <25x Avg Cmax): +ve | hLiMTs Cmax max All (hLiMTs [13]; hLiMTs, all endpoints, Cmax max used): +ve | hLiMTs Cmax min All (hLiMTs [13]; hLiMTs, all endpoints, Cmax min used): +ve | hLiMTs <10 uM All (hLiMTs [13]; hLiMTs, all endpoints, cut-off <10 uM): +ve (<10 uM) | hLiMTs <100x Avg Cmaxu All (hLiMTs [13]; hLiMTs, all endpoints, cut-off <100x Avg Cmaxu): -ve | HepaRG <25x Avg Cmax ATP (HepaRG spheroids; HepaRG, ATP endpoint, cut-off <25x Avg Cmax): +ve | HepaRG <100x Avg Cmaxu ATP (HepaRG spheroids; HepaRG, ATP endpoint, cut-off <100x Avg Cmaxu): -ve | HepaRG <25x Avg Cmax HCS (HepaRG spheroids; HepaRG, HCS endpoints, cut-off <25x Avg Cmax): +ve | HepaRG <100x Avg Cmaxu HCS (HepaRG spheroids; HepaRG, HCS endpoints, cut-off <100x Avg Cmaxu): -ve | HepaRG <25x Avg Cmax All (HepaRG spheroids; HepaRG, all endpoints (ATP and HCS), cut-off <25x Avg Cmax): +ve | HepaRG Cmax max All (HepaRG spheroids; HepaRG, all endpoints, Cmax max used): +ve | HepaRG Cmax min All (HepaRG spheroids; HepaRG, all endpoints, Cmax min used): +ve | HepaRG <10 uM All (HepaRG spheroids; HepaRG, all endpoints, cut-off <10 uM): +ve (<10 uM) | HepaRG <100x Avg Cmaxu All (HepaRG spheroids; HepaRG, all endpoints, cut-off <100x Avg Cmaxu): -ve | AC50 (HepaRG spheroids; HepaRG, read-out: ATP endpoint AC50): 19.4 µM | minimal effective concentration (HepaRG spheroids; HepaRG, read-out: ATP endpoint MEC): 11.6 µM | AC50 (HepaRG spheroids; HepaRG, read-out: HCS endpoint AC50): 23.8 µM | minimal effective concentration (HepaRG spheroids; HepaRG, read-out: HCS endpoint MEC): 5.67 µM | DILI prediction HepaRG spheroids (HCS-MEC) (HepaRG spheroids; [18]): +VE (MEC < 25 × Cmax.tot cut-off)

Source: article PMC7395068, “The evolution of strategies to minimise the risk of human drug-induced liver injury (DILI) in drug discovery and development” (Archives of Toxicology, 2020)
